From patent US12496298B2, “Natural killer cells” (Imperial College Innovations Limited, priority 2017, dated 2025)

How the values were obtained:
Eomes = test: RT-qPCR relative expression of Eomes in cultured HPCs; format: cell-based, mouse; settings: 5 μM added Day 2, harvested Day 4
Protocol: FIG. 8: HPCs were cultured with or without 5 μM SR8278 added on Day 2. At Day 3, 4 and 5, cells were harvested in order to quantify their relative […] by RT-qPCR. The graphs show relative expression of (A) E4bp4, (B) Id2 and (C) Eomes normalized to the housekeeping gene, Hprt.
HPCs isolated from a WT mouse were cultured as previously (FIG. 2) but the cells were harvested and analysed using RT-qPCR on Day 3, 4 and 5. The relative expression of the E4bp4, Id2 and Eomes genes was compared to the housekeeping gene, Hprt. At Day 4, E4bp4, Id2 and Eomes expression was higher in SR8278 treated samples when compared to the ‘No drug’ control (FIG. 8). The increase in E4bp4 expression disappeared at Day 5 but the increase of Id2 expression remained (FIG. 8B). The upregulation of E4bp4 and its downstream targets happens in a matter of hours and only stays high for a defined period of time.
RNA was extracted using Qiagen RNeasy Micro Kit according to the manufacture's protocol (Qiagen). Centrifugation was done at 8000 g for 15 seconds and the flow through discarded. Briefly, 350 μl of Buffer RLT+10% β-Mercaptoethanol were added to the harvested cells. […] The concentration of RNA in each sample was measured using Nanodrop, and all samples were diluted to the same working concentration. […]

HPCs = test: Live cells / toxicity in mouse HPC culture under NK cell-producing conditions; format: cell-based
Protocol: FIG. […] At Day 9, percentage of NK cells was quantified using flow cytometry. (A) Graph showing relative mature mouse NK cell (NK1.1+ CD3−) production when 5 and 10 μM SR8278 were added on different days compared to the ‘No drug’ control. (B) Representative flow cytometry results with percentage of NK cells shown. Addition of 5 μM SR8278 is shown on the top, whereas addition of 10 μM SR8278 is shown on the bottom. […] Results were averaged from two experiments with four repeats each and the error bars represent the mean+SD. Asterisks indicate significant differences from the two annotated results (* is P≤0.01, *** is P≤0.0001 and **** is P≤0.00001) based on Mann-Whitney test.
The HPCs were plated and cultured in 24-well plates at a concentration of 5×10^5 HPCs/well in 1 ml of complete cytokine medium (Dulbecco's modified eagle medium (DMEM) (Sigma Aldrich), 10% FCS, 50 μM β-Mercaptoethanol, 10 ng/ml Flt3-ligand (FIt3L) (R&D Systems), 10 ng/ml IL-7 (R&D Systems), 100 ng/ml stem cell factor (SCF) (R&D Systems) and 1% P/S) for 2 days at 37° C., 5% CO2. […]
Cells to be analysed by flow cytometry were passed through 40 μm cell strainers to remove clumps and washed with PBS buffer, centrifuged at 800 g for 2 minutes and resuspended in 100 μl fluorescent activated cell sorting (FACS) buffer (PBS plus 1% BSA) with appropriate fluorochrome conjugated antibodies at a dilution of 1 in 300. […]

CCOC(=O)C1Cc2ccccc2CN1C(=O)c1ccc(SC)s1 (stereo not drawn) [SR8278, 1,2,3,4-Tetrahydro-2-[[5-(methylthio)-2-thienyl]carbonyl]-3-isoquinolinecarboxylic acid ethyl ester]
Eomes expression relative to Hprt, compared to 'No drug' control (Eomes): higher | toxicity to cells in culture (HPCs; 20 μM): toxic and killed most of the cells | numbers of live cells compared to 'No drug' control (HPCs; added at Days 0 and 1, 5 and 10 μM): remarkably low
